Patent publication US20260364072A1, “METHODS FOR PROMOTING EXPANSION OF HUMAN CD34+ CELLS IN VIVO AND FOR PROMOTING NEURAL REGENERATION” (THE REGENTS OF THE UNIVERSITY OF CALIFORNIA, priority 2023, published 2026)

Columns and labels:
[1] = NHP single-dose toxicokinetic study; format: in vivo, cynomolgus monkeys
Procedure: Pre-IND PD and toxicokinetic (TK) studies (FIG. 4D) were enabled by scalable Rebecsinib synthesis^34 and development of an optimized formulation for in vivo biodistribution (5% w/v EtOH, 5% w/v Kolliphor HS15 in 0.9% Sodium Chloride). In PK studies, Rebecsinib was detectable in rat, rabbit, and non-human primate (NHP) plasma following IV bolus administration. In rat TK studies, Rebecsinib was quantifiable up to 1-hour post-dose at 1 mg/kg and up to 4 hours post-dose at 3, 5, and 8 mg/kg (FIG. 4E). […] Rebecsinib T1/2 values were 0.342, 0.447, 0.313, and 0.530 hours at 1, 3, 5, and 8 mg/kg, respectively. […] Following 3, 10, and 20 mg/kg boluses, Rebecsinib was quantifiable in plasma 1 hour post-dose and could be detected up to 8 hours post-dosing with 40 mg/kg (FIG. 4F). […] Following 3, 10, 15, and 20 mg/kg of Rebecsinib, quantifiable plasma concentrations of Rebecsinib were observed through 8 hrs post-dose (FIG. 4G).
(FIG. 29D) Schematic diagram outlining multispecies toxicokinetic (TK) and pharmacodynamic studies in mammalian species treated in vivo with a single dose of Rebecsinib. Toxicokinetic analyses were performed in rats (n=6 per sex, per group), rabbits (n=2 per sex, per group), and non-human primates (NHPs, n=1 per sex, per group) and pharmacodynamic splice isoform quantification studies were performed in peripheral blood mononuclear cells (PBMCs) from NHP.
(FIG. 29G, FIG. 29H) For in vivo TK and complementary pharmacodynamic studies, NHPs were given a single injection of Rebecsinib at 3-20 mg/kg, or vehicle control, and blood samples were drawn at regular intervals to determine plasma concentrations (FIG. 29G) of the compound along with splice isoform biomarker assays to quantify MCL1 exon skipping in PBMCs isolated from treated animals (FIG. 29H, n=2 animals per group).
Single-dose TK studies were performed in Sprague Dawley rats (Charles River Labs, South San Francisco, CA), New Zealand white rabbits (BASi/Inotiv, West Lafayette, IN), and cynomolgus monkeys (BASi/Inotiv). Rat and rabbit studies included toxicology analyses, quantification of plasma levels of Rebecsinib, and necropsies to evaluate organ integrity after treatment. For NHP studies, health and ophthalmological evaluations were performed before and after dosing with Rebecsinib, and blood samples were collected for quantification of plasma levels of Rebecsinib and biomarker studies in PBMCs from treated and control animals. All monkeys were returned to the animal colony after the end of the observation period. Toxicokinetic values including mean plasma concentrations and t1/2 values were calculated according to CRO-approved protocols (Charles River and BASi).

[2] = test system: CD34+Lin- cells (sAML50261); assay: sAML50261 PDX mice, flow cytometry of PB, SP, BM; format: in vivo, human cells in Rag2-/-gc-/- mice; conditions: 10 mg/kg, intravenously, twice a week for 2 weeks
Procedure: The mouse models were screened by staining the PB of each mouse with a human CD45 mAb. Mice with a threshold of human CD45^+ cells >1% were included in the treatment cohort for Rebecchini. The dosing plan involved administering Rebecsinib at a dose of 10 mg/kg, intravenously, twice a week for 2 weeks, with a total of 5 doses. Single cells were isolated from the mouse organs, including PB, SP, and BM, and subjected to staining with human stem cell markers and lineage cell markers.

[3] = test system: KG-1a, MOLM-13 and HL-60 cells (SF3B family members, PTK2B-202); assay: Splice isoform biomarker qRT-PCR in human AML cell lines; format: cell-based; conditions: 1 μM, 4 hr
Procedure: For quantitative analysis of splice isoform expression, RNA editing rates, and whole gene expression by qRT-PCR, cells or tissue fragments were harvested in RNA lysis buffer and total RNA was extracted using RNeasy mini or micro extraction kits (QIAGEN, Germantown, MD) following the manufacturer's protocol including a DNase incubation step to digest any trace genomic DNA present. Levels of ADAR1 variants and LSC-specific transcripts were quantified by qRT-PCR as previously described.^14 RNA-editing site-specific qRT-PCR (RESSqPCR) was performed for variants in AZIN1 transcripts.^53 Additional species-specific primers were also designed to quantify intron retention rates in cells treated with Rebecsinib as a biomarker of response to RNA splicing modulation. Specifically, for the two-step SYBR-green based assays, as previously described,^7,14,53 100-1000 ng of RNA were subjected to cDNA synthesis using the SUPERSCRIPT III™ (ThermoFisher Scientific) kit followed by qRT-PCR using SYBR GreenER (ThermoFisher Scientific) master mix according to the manufacturer's recommended procedures. qRT-PCR was performed using SYBR GREENER SUPER MIX™ (Life Technologies) on BioRad iQ5™, C1000 TOUCH™, or BioRad CFX384™ instruments. Human splice isoform-specific, RNA editing site-specific qPCR (RESSqPCR)^53. Primer sets that have not been previously published were designed and tested for efficiency followed by analyses in samples exposed to Rebecsinib, with species-specific HPRT primers used as controls. […] Relative mRNA expression values were calculated using the 2^−ΔCT method, with normalization to untreated or vehicle-treated controls.^54
For multi-species biomarker development and transcript variant-specific qRT-PCR experiments, human AML cell lines KG-1a, MOLM-13, and HL-60, and rat leukemia cells RBL-1 were grown to confluence and treated with 1 μM Rebecsinib for 4 hr. Cells were collected and lysed in Qiagen RNA lysis buffer, and analyzed using the species-specific primers and qRT-PCR procedures described above.

SMILES: CC[C@H](OC)[C@@H](C)[C@H]1O[C@@H]1[C@@H](O)[C@H](C)/C=C/C=C(\C)[C@H]1OC(=O)C[C@H](O)CC[C@@](C)(O)[C@@H](OC(C)=O)/C=C/[C@@H]1C [Rebecsinib]
- tolerability [1]: favorable tolerability
- diarrhea ([1]; 20 mg/kg, resolved within 24 hours with no treatment and no sequelae): one female NHP in the 20 mg/kg treatment group developed diarrhea
- quantifiable plasma concentrations through time post-dose ([1]; IV bolus, 3, 10, 15, and 20 mg/kg): up to 8 hrs
- peak (Cmax) levels, male vs female ([1]; IV bolus, all dose levels): comparable between male and females
- total (AUClast) levels, male vs female ([1]; IV bolus, all dose levels): comparable between male and females
- half-life ([1]; cynomolgus monkey, plasma, IV bolus, read-out: half-life (t1/2)): 37.2 to 66 min
- human CD45+ cells in PB, BM, and SP [2]: preserved human CD45^+ cells
- CD34+Lin- cell population in SP ([2]; p=0.0006, Student's t-test): significant inhibition
- CD34+Lin- cell population in PB ([2]; p=0.0015, Student's t-test): significant inhibition
- expression of PTK2B-202 isoform [3]: Decreased expression of the LSC-related PTK2B-202 isoform
- intronic retention of SF3B family members ([3]; KG-1a, MOLM-13 and HL-60): significant upregulation of intronic retention of SF3B family members
- SF3B3 intron retention response ([3]; across all cell lines): most potent and consistent response
